Experimental data reported in patent US12522594B2, “2-heteroaryl-3-oxo-2,3-dihydropyridazine-4-carboxamides for the treatment of cancer” (Deutsches Krebsforschungszentrum, priority 2017, dated 2026).

Tests used:
Format in all cases: cell-based
AHR [1] = molecular target: T1, AHR (Homo sapiens, UniProt P35869); test: In vitro assay 1: antagonism in human cell line (transactivation assay, U87 cells prestimulated with kynurenic acid, DRE firefly luciferase reporter); parameters: host or cells: U87 glioblastoma cells, stably transfected with DRE firefly luciferase and renilla reporter constructs; conditions: 150 uM kynurenic acid, 20 hours, read-out: Assay 1: AHR-luc Hum Antagonism IC50
T1 sequence (P35869 11-848): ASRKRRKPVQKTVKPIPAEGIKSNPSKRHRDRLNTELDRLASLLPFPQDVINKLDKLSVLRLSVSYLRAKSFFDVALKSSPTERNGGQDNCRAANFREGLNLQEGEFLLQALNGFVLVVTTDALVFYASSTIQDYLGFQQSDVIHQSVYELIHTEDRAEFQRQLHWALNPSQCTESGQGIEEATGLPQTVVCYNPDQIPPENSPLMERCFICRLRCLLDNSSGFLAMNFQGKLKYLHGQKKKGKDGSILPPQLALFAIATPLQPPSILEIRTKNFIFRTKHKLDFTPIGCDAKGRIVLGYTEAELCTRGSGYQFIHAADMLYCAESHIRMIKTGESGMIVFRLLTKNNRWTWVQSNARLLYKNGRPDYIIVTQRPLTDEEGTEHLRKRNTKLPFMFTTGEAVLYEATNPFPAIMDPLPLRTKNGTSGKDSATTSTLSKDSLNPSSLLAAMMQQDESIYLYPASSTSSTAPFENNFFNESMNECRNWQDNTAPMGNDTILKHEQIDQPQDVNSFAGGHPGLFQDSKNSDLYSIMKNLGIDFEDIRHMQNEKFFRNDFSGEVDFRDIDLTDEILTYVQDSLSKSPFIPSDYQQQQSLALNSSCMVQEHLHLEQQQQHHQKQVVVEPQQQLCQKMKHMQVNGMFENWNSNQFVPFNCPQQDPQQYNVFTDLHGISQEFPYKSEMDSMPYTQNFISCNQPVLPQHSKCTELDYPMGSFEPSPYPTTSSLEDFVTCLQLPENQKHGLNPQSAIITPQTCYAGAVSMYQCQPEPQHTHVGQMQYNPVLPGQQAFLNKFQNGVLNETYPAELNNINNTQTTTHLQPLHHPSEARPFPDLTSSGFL
Procedure, shortened: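 Antagonism measured after kynurenic acid prestimulation in U87 cells that express AHR endogenously and stably harbor a firefly luciferase gene under DRE control plus a constitutive renilla construct. Positive and negative controls served for normalization.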

AHR [2] = molecular target: T1, AHR; test: In vitro assay 2: agonism in human cell line (transactivation assay, U87 cells, DRE firefly luciferase reporter); parameters: host or cells: U87 glioblastoma cells, stably transfected with DRE firefly luciferase and renilla reporter constructs; conditions: no kynurenic acid, 20 hours, read-out: Assay 2: AHR-luc Hum Agonism IC50
Procedure, shortened: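 Agonist readout: DRE firefly luciferase, with constitutive renilla reporter, in stably transfected U87 cells expressing AHR endogenously. Normalization used positive control (300 uM kynurenic acid) and negative control.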

AHR [3] = molecular target: T1, AHR; test: In vitro assay 3: AHR-regulated CYP1A1 expression in human cell line (U937, qPCR, KA stimulation); conditions: U937 cells, 200 uM KA, 6 hours, CYP1A1 expression by qPCR; read-out: Assay 3: Hum CYP1A1 Antagonism IC50
Protocol: In Vitro Assay 3: AHR-Regulated CYP1A1 Expression in Human Cell Line
To assess the AHR inhibitory activity of the substances described in this application, the ability thereof to antagonise ligand-induced AHR gene regulation in a dose-dependent manner was quantified. For this purpose, quantitative PCR analysis was used to determine expression of the AHR-regulated gene CYP1A1 in a human monocytic U937 cell line upon stimulation with 200 uM KA in the presence and absence of AHR inhibitor. […] CYP1A1 expression was induced with 200 uM KA (positive control) in the presence or absence of the substances for 6 hours. Human U937 cells were typically incubated with eight different concentrations of the substances (1 nM, 3 nM, 10 nM, 30 nM, 100 nM, 300 nM, 1 uM and 3 uM) and analyzed in duplicate on the same microtitre plate. […] Unstimulated cells were used as the negative control. Taqman probes for human CYP1A1 (Hs01054797_g1) and human HPRT (Hs02800695_m1) were used to analyze fold expression of CYP1A1 of HPRT. Quantitation was performed on a Taqman SDS7900HT.

IC50 (AHR [1]) [nM]	IC50 (AHR [2]) [nM]	IC50 (AHR [3]) [nM]	Compound
11.6	> 20000	9.43	Cn1cc(-n2nc(-c3ccc(Cl)cc3)cc(C(=O)N[C@@H]3COC[C@@H]3O)c2=O)cn1 (single isomer, unassigned; enantiomer 1) [Example 44, 6-(4-Chlorophenyl)-N-[(cis)-4-hydroxytetrahydrofuran-3-yl]-2-(1-methyl-1H-pyrazol-4-yl)-3-oxo-2,3-dihydropyridazine-4-carboxamide, Enantiomer 1]
21.8	> 20000	25.2	O=C(N[C@H]1COC[C@H]1O)c1cc(-c2ccc(OC(F)(F)F)cc2)nn(-c2cccnc2)c1=O (single isomer, unassigned; enantiomer 1) [Example 158, N-[(cis)-4-Hydroxytetrahydrofuran-3-yl]-3-oxo-2-(pyridin-3-yl)-6-[4-(trifluoromethoxy)phenyl]-2,3-dihydropyridazine-4-carboxamide, Enantiomer 1]
41.5	> 20000	83.5	Cn1cc(-n2nc(-c3ccc(Cl)cc3)cc(C(=O)N[C@@H]3COC[C@@H]3O)c2=O)cn1 (single isomer, unassigned; enantiomer 2) [Example 45, 6-(4-Chlorophenyl)-N-[(cis)-4-hydroxytetrahydrofuran-3-yl]-2-(1-methyl-1H-pyrazol-4-yl)-3-oxo-2,3-dihydropyridazine-4-carboxamide, Enantiomer 2]
57	> 20000	97.9	O=C(N[C@H]1COC[C@H]1O)c1cc(-c2ccc(OC(F)(F)F)cc2)nn(-c2cccnc2)c1=O (single isomer, unassigned; enantiomer 2) [Example 159, N-[(cis)-4-Hydroxytetrahydrofuran-3-yl]-3-oxo-2-(pyridin-3-yl)-6-[4-(trifluoromethoxy)phenyl]-2,3-dihydropyridazine-4-carboxamide, Enantiomer 2]
27.3	> 20000	37.3	O=C(N[C@H]1COC[C@@H]1O)c1cc(-c2ccc(OC(F)(F)F)cc2)nn(-c2cccnc2)c1=O (single isomer, unassigned; enantiomer 2) [Example 162, N-[(trans)-4-Hydroxytetrahydrofuran-3-yl]-3-oxo-2-(pyridin-3-yl)-6-[4-(trifluoromethoxy)phenyl]-2,3-dihydropyridazine-4-carboxamide, Enantiomer 2]
57.3	> 20000	22.4	O=C(N[C@H]1COC[C@@H]1O)c1cc(-c2ccc(Cl)cc2)nn(-c2cccnc2)c1=O (single isomer, unassigned; enantiomer 2) [Example 170, 6-(4-Chlorophenyl)-N-[(trans)-4-hydroxytetrahydrofuran-3-yl]-3-oxo-2-(pyridin-3-yl)-2,3-dihydropyridazine-4-carboxamide, Enantiomer 2]

More lines, now with the values behind:

Compound	IC50 (AHR [1]) [nM]	IC50 (AHR [2]) [nM]	IC50 (AHR [3]) [nM]
O=C(NCC(O)C(F)F)c1cc(-c2ccc(C(F)(F)F)cc2)nn(-c2cccnc2)c1=O (single isomer, unassigned; (-)) [Example 230, (−)-N-(3,3-Difluoro-2-hydroxypropyl)-3-oxo-2-(pyridin-3-yl)-6-[4-(trifluoromethyl)phenyl]-2,3-dihydropyridazine-4-carboxamide]	7.57	> 20000	10.4
CC(C)(O)C(NC(=O)c1cc(-c2ccc(C(F)(F)F)cc2)nn(-c2cccnc2)c1=O)C(F)(F)F (single isomer, unassigned; (-)) [Example 241, (−)-3-Oxo-2-(pyridin-3-yl)-N-(1,1,1-trifluoro-3-hydroxy-3-methylbutan-2-yl)-6-[4-(trifluoromethyl)phenyl]-2,3-dihydropyridazine-4-carboxamide]	10.9	> 20000	36.3
Cc1ccc(-c2cc(C(=O)NCC(O)C(F)(F)F)c(=O)n(-c3cnn(C)c3)n2)cc1 (single isomer, unassigned; enantiomer 1) [Example 11, (−)-6-(4-Methylphenyl)-2-(1-methyl-1H-pyrazol-4-yl)-3-oxo-N-(3,3,3-trifluoro-2-hydroxypropyl)-2,3-dihydropyridazine-4-carboxamide, Enantiomer 1]	4.55	> 20000	0.15
Cc1ccc(-c2cc(C(=O)NCC(O)C(F)F)c(=O)n(-c3cnn(C)c3)n2)cc1 (single isomer, unassigned; enantiomer 1) [Example 14, N-(3,3-Difluoro-2-hydroxypropyl)-6-(4-methylphenyl)-2-(1-methyl-1H-pyrazol-4-yl)-3-oxo-2,3-dihydropyridazine-4-carboxamide, Enantiomer 1]	12.1	> 20000	25.5
Cc1ccc(-c2cc(C(=O)NCC(O)C(F)F)c(=O)n(-c3cnn(C)c3)n2)cc1 (single isomer, unassigned; enantiomer 2) [Example 15, N-(3,3-Difluoro-2-hydroxypropyl)-6-(4-methylphenyl)-2-(1-methyl-1H-pyrazol-4-yl)-3-oxo-2,3-dihydropyridazine-4-carboxamide, Enantiomer 2]	26.5	> 20000	122
Cc1ccc(-c2cc(C(=O)NC(CO)C(C)C)c(=O)n(-c3cnn(C)c3)n2)cc1 (stereo not drawn) [Example 1, N-(1-Hydroxy-3-methylbutan-2-yl)-6-(4-methylphenyl)-2-(1-methyl-1H-pyrazol-4-yl)-3-oxo-2,3-dihydropyridazine-4-carboxamide]	7.38	> 20000	4.3
Cc1ccc(-c2cc(C(=O)NCC(O)C(F)(F)F)c(=O)n(-c3cnn(C)c3)n2)cc1 (stereo not drawn) [Example 10, 6-(4-Methylphenyl)-2-(1-methyl-1H-pyrazol-4-yl)-3-oxo-N-(3,3,3-trifluoro-2-hydroxypropyl)-2,3-dihydropyridazine-4-carboxamide]	4.25	> 20000	10.2
Cn1cc(-n2nc(-c3ccc(Cl)cc3)cc(C(=O)NCC(C)(C)O)c2=O)cn1 [Example 32, 6-(4-Chlorophenyl)-N-(2-hydroxy-2-methylpropyl)-2-(1-methyl-1H-pyrazol-4-yl)-3-oxo-2,3-dihydropyridazine-4-carboxamide]	35.6	> 20000	21.9
Cn1cc(-n2nc(-c3ccc(Cl)cc3)cc(C(=O)N[C@H](CO)C(F)(F)F)c2=O)cn1 [Example 35, (+)-6-(4-Chlorophenyl)-2-(1-methyl-1H-pyrazol-4-yl)-3-oxo-N-[(2R)-1,1,1-trifluoro-3-hydroxypropan-2-yl]-2,3-dihydropyridazine-4-carboxamide]	1.5	> 20000	41
Cn1cc(-n2nc(-c3ccc(C(F)(F)F)cc3)cc(C(=O)NC[C@H](O)C(F)(F)F)c2=O)cn1 [Example 37, 2-(1-Methyl-1H-pyrazol-4-yl)-3-oxo-N-[(2S)-3,3,3-trifluoro-2-hydroxypropyl]-6-[4-(trifluoromethyl)phenyl]-2,3-dihydropyridazine-4-carboxamide]	2.64	> 20000	0.423
C[C@H](CO)NC(=O)c1cc(-c2ccc(C(F)(F)F)cc2)nn(-c2cnn(C)c2)c1=O [Example 38, (−)-N-[(2R)-1-Hydroxypropan-2-yl]-2-(1-methyl-1H-pyrazol-4-yl)-3-oxo-6-[4-(trifluoromethyl)phenyl]-2,3-dihydropyridazine-4-carboxamide]	34.3	> 20000	36.2
